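Interpolation was linear, between the two tested concentrations surrounding the appropriate level; five concentrations were tested over 48 hours in 96-well plates. GI50: concentration for 50% inhibition of growth.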 Activity calls are given as the source filed them. No stated cut-off is given here; in the data, active = GI50 up to about 1.1 µM and inactive = higher.
Experiments:
Assay in all cases: NCI anticancer screen, dose series, 48 h
KM12 = tested on: KM12
CAKI-1 = tested on: CAKI-1
SN12C = tested on: SN12C
SK-MEL-5 = tested on: SK-MEL-5
OVCAR-8 = tested on: OVCAR-8
UACC-257 = tested on: UACC-257
SK-MEL-2 = tested on: SK-MEL-2
K562 = tested on: K562
SF-268 = tested on: SF-268
SNB-75 = tested on: SNB-75
HT-29 = tested on: HT-29
NCI-H226 = tested on: NCI-H226
UO-31 = tested on: UO-31
A498 = tested on: A498
NCI-H522 = tested on: NCI-H522
HCT-116 = tested on: HCT-116

Measured: GI50

COC(=O)C1=C(C[S+]([O-])c2ccc([N+](=O)[O-])cc2[N+](=O)[O-])ON(C)C1c1ccccc1 (centres undefined)
inactive: KM12 37.2 µM | CAKI-1 28 µM | SN12C 29.4 µM | SK-MEL-5 83.9 µM | OVCAR-8 63.7 µM | UACC-257 50.6 µM | SK-MEL-2 37 µM | K562 12.1 µM | SF-268 33.5 µM | SNB-75 16.3 µM | HT-29 20.2 µM | NCI-H226 65.2 µM | UO-31 39.4 µM | A498 > 61.8 µM | NCI-H522 17.7 µM | HCT-116 34 µM

O=C(NNC(=O)/C(=C/c1cccc([N+](=O)[O-])c1)NC(=O)c1ccccc1)Nc1ccc(Cl)cc1
inactive: KM12 11.4 µM | CAKI-1 19.9 µM | SN12C 14.5 µM | SK-MEL-5 13.1 µM | OVCAR-8 14.2 µM | UACC-257 17.6 µM | SK-MEL-2 12.2 µM | K562 5.66 µM | SF-268 15.1 µM | SNB-75 13.6 µM | HT-29 14.1 µM | NCI-H226 15.1 µM | UO-31 13.5 µM | A498 10.6 µM | NCI-H522 12.3 µM | HCT-116 13.4 µM

O=C(Nc1cccc(C(F)(F)F)c1)C(=O)C1NC(=S)NC1=O (centres undefined)
inactive: KM12 > 100 µM | CAKI-1 > 100 µM | SN12C > 100 µM | SK-MEL-5 > 100 µM | OVCAR-8 > 100 µM | UACC-257 31.6 µM | SK-MEL-2 > 100 µM | K562 71.1 µM | SF-268 > 100 µM | SNB-75 > 100 µM | HT-29 61.9 µM | NCI-H226 > 100 µM | UO-31 > 100 µM | A498 > 100 µM | HCT-116 82.4 µM

CCCCCCCCC(=O)N(C)C1C2CN3CCC(O2)C13 (centres undefined)
inactive: KM12 > 100 µM | CAKI-1 48.9 µM | SN12C > 100 µM | SK-MEL-5 > 100 µM | UACC-257 > 100 µM | SK-MEL-2 > 100 µM | K562 > 100 µM | SF-268 > 100 µM | SNB-75 75.7 µM | HT-29 > 100 µM | NCI-H226 > 100 µM | UO-31 > 100 µM | A498 > 100 µM | NCI-H522 > 100 µM | HCT-116 > 100 µM

O=C(OCc1ccccc1C1CSCSC1)c1cc(C(=O)OCc2ccccc2C2CSCSC2)c(C(=O)OCc2ccccc2C2CSCSC2)cc1C(=O)OCc1ccccc1C1CSCSC1
inactive: KM12 > 100 µM | CAKI-1 > 100 µM | SN12C > 100 µM | SK-MEL-5 > 100 µM | OVCAR-8 > 100 µM | UACC-257 > 100 µM | SK-MEL-2 > 100 µM | K562 > 100 µM | SF-268 > 100 µM | SNB-75 29.4 µM | HT-29 > 100 µM | NCI-H226 > 100 µM | UO-31 > 100 µM | A498 > 100 µM | NCI-H522 > 100 µM | HCT-116 > 100 µM

COC(=O)c1c/c(=N\NC(=O)CC(=O)Nc2ccccc2Cl)c2ccccc2o1
inactive: KM12 > 100 µM | CAKI-1 > 100 µM | SN12C > 100 µM | SK-MEL-5 > 100 µM | OVCAR-8 > 100 µM | UACC-257 > 100 µM | SK-MEL-2 > 100 µM | K562 > 100 µM | SF-268 > 100 µM | SNB-75 > 100 µM | HT-29 > 100 µM | NCI-H226 27.7 µM | UO-31 91.4 µM | A498 > 10 µM | NCI-H522 > 100 µM | HCT-116 > 100 µM

C/C(=N\Nc1ccccc1)c1sc(-c2nc(C)c(/C(C)=N/Nc3ccccc3)s2)nc1C
inactive: KM12 24.7 µM | CAKI-1 > 58.2 µM | SN12C > 78.2 µM | SK-MEL-5 16.7 µM | OVCAR-8 33.4 µM | UACC-257 35.1 µM | SK-MEL-2 > 100 µM | K562 7.36 µM | SNB-75 23.4 µM | HT-29 9.06 µM | NCI-H226 40.4 µM | UO-31 8.83 µM | A498 > 46.1 µM | NCI-H522 18.1 µM | HCT-116 33.7 µM

Source: ChEMBL document CHEMBL1201862, “PubChem BioAssay data set” (2004)
